# Values of other authors in patent US5973199A, “Hydrosoluble organic salts of creatine” (priority 1994, dated 1999).
# Columns and labels:
# [1] = not given; remark: listed apart in the source
smiles,measurement,setting,value
"CN(CC(=O)O)C(=N)N [creatine, N-(aminoiminomethyl)-N-methylglycine]",creatine half-life in plasma,,1 to 1.5 h
same,tolerability of high doses,[1]; high doses of 5-10 g (mean body weights of 70 kg),well tolerated
same,toxicity,[1]; in vivo,lack of toxicity
